In patent US20260174766A1, “COMBINATION OF MENIN INHIBITOR(S) AND IMMUNOPROTEASOME INHIBITOR(S) FOR TREATMENT OF LEUKEMIA” (Medizinische Hochschule Hannover, priority 2022, published 2026):

Legend:
MLLr cell lines = experiment: Cell growth (cell counting after trypan blue exclusion) of MLLr cell lines; assay type: cell-based, human; conditions: 250-500 nM; MOLM-13, MV-4;11, ML-2, KOPN-8; FIG. 1H
Experimental: MOLM-13, MONO-MAC-6, THP-1, KOPN-8, ML-2, MV-4;11, OCI-AML3, U-937, KASUMI-1, K-562, HL-60 and LAMA-84 cells were purchased from DSMZ (Braunschweig, Germany). Cas9-Blast cell lines are subclones of the respective cell lines and stably transduced with lentiCas9-Blast (Addgene plasmid #52962). Cells were cultured in RPMI 1640 medium (Thermo Fisher Scientific, Waltham, MA, USA) supplemented with 10-20% FBS (Thermo Fisher Scientific) in a humid atmosphere of 5% CO2 at 37° C. MV4;11 cells harboring Menin-inhibitor resistance mediating mutations of Menin were generated by CRISPR-Cas9 technology.
Cellular proliferation was assessed by cell counting after trypan blue exclusion. Apoptosis of cells was measured by flow cytometry using Annexin V/SYTOX® Blue staining following the manufacturer's instruction.

[1] = tested on: primary human leukemia cells harboring an MLL-AF4 fusion; experiment: MLL-AF4 patient-derived xenograft model with in vivo treatment and limiting dilution assay; set-up: species or system mouse; conditions: ELDA; engraftment >1% hCD45+ in peripheral blood three months after transplantation; DMSO 1/247973
From the text: NOD.Cg-Prkdc^scid Il2rg^tm1Wjl Tg(CMV-IL3, CSF2, KITLG) 1Eav/MloySzJ (NSGS), NOD.Cg-Prkdc^scid Il2rg^tm1Wjl/SzJ (NSG) or NOD.Cg-Prkdc^scid Il2rg^tm1Wjl/RJ (NXG) were obtained from The Jackson Laboratory (Bar Harbor, ME, USA). 8-12-weeks old adult mice (male and female) were irradiated with 2 Gy (single dose) before transplantation. 1×10^5 MOLM-13, ML-2 or MV-4; 11 cells transduced with either of two PSMB8/LMP7 shRNAs or non-targeting control; with a pLEX vector containing the sequence of BASP1 or an empty vector; or treated ex vivo with the indicated inhibitors were injected intravenously via the tail vein. For patient derived xenograft experiments (PDX) of human MLLr leukemia we used an improved model for human HSC transplantation and analysis, that has been developed from immune-deficient mouse strains containing Kit mutations: NOD.Cg-^KitW-41J Prkdc^scid Il2rg^tm1Wjl/WaskJ (NSGW41) (Cosgun et al., 2014). […] Human myeloid engraftment (hCD45+ CD13+) was analyzed by flow cytometry. […]
FIGS. 4J-4K show number of engrafted mice per dilution (engraftment is considered if the percentage of hCD45+ cells is >1% in peripheral blood three months after transplantation) is shown and leukemic stem cell (LSC) frequency calculated using the ELDA (Extreme Limiting Dilution Assay) software (reference). […]

SMILES	reduction of cell growth in MLL-rearranged human AML cell lines (MLLr cell lines)	LSC frequency [1]
O=C(N[C@H](Cc1coc2ccccc12)B(O)O)[C@@H]1C[C@@H]2CC[C@H]1O2 [M3258, ((S)-2-(benzofuran-3-yl)-1-((1R,2R,4S)-7-oxabicyclo[2.2.1]heptane-2-carboxamido)ethyl)boronic acid]	recapitulated	
Cc1c(CN2CCC(Nc3ncnc4sc(CC(F)(F)F)cc34)CC2)ccc2c1cc(C#N)n2Cc1cn[nH]c1 [MI-503, 4-Methyl-1-(1H-pyrazol-4-ylmethyl)-5-[[4-[[6-(2,2,2-trifluoroethyl)thieno[2,3-d]pyrimidin-4-yl]amino]-1-piperidinyl]methyl]-1H-indole-2-carbonitrile]		1/363914
